{"source": "patent US10073099B2", "about": "“Methods and diagnostics for cancer detection and treatment monitoring” (University of New England, priority 2015, dated 2018)", "key": {"[1]": {"system": "ER− 3D spheroids", "test": "Medium NOHA level of 3D spheroids by ELISA in the presence of inhibitors", "assay_type": "cell-based", "method": "FIGS. 8A-8D present an analysis of medium NOHA level by ELISA in the presence or absence of inhibitors.\n(§1) The following inhibitory tests were performed to determine their role (and/or regulatory effect) on extra-tumoral NOHA accumulation. While NOHA is generated by NOS2 during nitric oxide production, it can be utilized in a NOS2 independent mechanism for nitric oxide generation, that could involve myeloperoxidase (MPO) mediated oxidation or cytochrome P450 reductase mediated pathway."}, "[2]": {"system": "MPO, Cytochrome P450 reductase", "test": "MPO and Cytochrome P450 reductase expression and activity after Arginase activity inhibition", "assay_type": "cell-based", "settings": "after Arginase activity inhibition with 5 nM ABH", "source_text": "FIG. 12A and FIG. 12B present analysis of cytochrome P450 reductase; FIG. 12A presents a graph showing expression; FIG. 12B presents a graph showing activity. #, represents significance from ER+ and control groups; and ^, represents significance from ER−[CA] groups. n=4. P<0.01\nFIG. 13A and FIG. 13B present analysis of MPO; FIG. 13A presents a graph showing expression; FIG. 13B presents a graph showing activity. #, represents significance from ER+ and control groups; and ^, represents significance from ER−[CA] groups. n=4. P<0.01.\nas §1, with “pathway. Since NOHA is known to be a strong inhibitor of Arginase, and Arginase increase would favor tumor proliferation, the role of Arginase was also explored.” for “pathway.”"}, "[3]": {"test": "NOHA stability analysis by ELISA, in vitro medium spiked with NOHA", "assay_type": "physicochemical", "settings": "medium spiked with 75 pg/ml NOHA", "method": "FIG. 6A presents an In Vitro medium NOHA stability analysis based on incubation duration and temperature condition for up to 6 weeks. n=4.\nELISA Method. 50 μl of NOHA standard sample concentration prepared in Locke's buffer (viz., 10 mM HEPES, 5.6 mM KCl, 154 mM NaCl, 5.6 mM glucose, 1.2 mM MgCl2, 2.3 mM CaCl2, pH 7.4) was mixed with 50 μl of primary NOHA antibody serum (at 1:200 dilution, Pierce Thermo Fisher) and incubated for 30 min at 4° C. The mixture was added to a 96 well plate pre-coated with […] (at 100 pg/ml concentration, in Locke's buffer). The plate was then incubated for 1 hour on a plate-rotator at 500 rpm, at 2-8° C. After incubation, the well content was aspirated, and the wells were washed three times with 200 μl ice-cold wash buffer (10 mM phosphate buffer pH 7.4, 150 mM NaCl, 0.05% Tween 20). 100 μl of enzyme conjugated secondary antibody (at 1:20,000 dilution in wash buffer) was added, and incubated for 1 hour on a plate rotator at 500 rpm, at 2-8° C. At the end of this incubation, the wells were washed again three times with 200 μl ice-cold wash buffer. […] The plates were then read at 450 nm, within 10 min after adding stop solution.\nIn vitro medium. To analyze NOHA stability via ELISA assay, medium was spiked with 75 pg/ml of NOHA and NOHA recovery was determined over 6 weeks at different temperatures (viz., −80° C., −20° C., 4° C., 25° C., 37° C. and 42° C.). […]"}, "[4]": {"test": "NOHA stability analysis over temperature in extracellular matrix medium of 3D spheroids, LC-MS", "assay_type": "physicochemical", "method": "Extracellular matrix medium from cancerous and non-cancerous 3D spheroid (viz., 300 μl/spheroid cell line), that was collected on day 7 after spheroid formation were divided in to six (6) equal volumes of 50 μl each. Each of the 50-μl fractions/spheroid cell lines were incubated at −80° C., −20° C., 4° C., 25° C., 37° C. and 42° C. for 1, 3, 5, 7, 10, 12, and 14 days. At the end of the incubation, NOHA level was monitored by LC-MS (Tables 4.1-4.6).\nThose medium samples that were incubated at higher temperature of 42° C. suffered the most with NOHA stability, which lasted for only 3 days (Table 4.4).\nTables 4.1-4.6: NOHA measurements after incubation at various temperatures"}}, "note": "Structures can show the parent of a compound that is named as a salt."}
{"smiles": "N[C@@H](CCCCB(O)O)C(=O)O", "note": "[ABH, 2(s)-amino-6-boronohexanoic acid]", "values": [{"measurement": "change in medium NOHA level", "setting": "[1]; 5 nM ABH, versus absence of ABH", "value": "no significant disease specific or ethnic specific change"}, {"measurement": "increase in Cytochrome P450 reductase expression and activity", "setting": "[2]", "value": "≥ 0.98"}, {"measurement": "increase in MPO expression and activity", "setting": "[2]", "value": "≥ 1.2", "unit": "fold"}]}
{"smiles": "NC(=NCCC[C@H](N)C(=O)O)NO", "note": "[NOHA, N^w-hydroxy-L-Arginine]", "values": [{"measurement": "period over which NOHA was stable", "setting": "[3]; 4° C. and below (4, −20, −80° C.)", "value": 6, "unit": "week"}, {"measurement": "period over which NOHA maintained stability", "setting": "[3]; 25° C., 37° C. and 42° C.", "value": 1, "unit": "week"}, {"measurement": "degradation or reduction in NOHA level", "setting": "[4]; extracellular matrix medium at 4° C., −20° C., and −80° C., 14-day incubation", "value": "no significant degradation or reduction"}, {"measurement": "duration of stable NOHA monitoring level", "setting": "[4]; medium samples incubated at 25° C.", "value": 12, "unit": "days"}, {"measurement": "duration of NOHA stability", "setting": "[4]; medium samples incubated at 42° C.", "value": 3, "unit": "days"}, {"measurement": "duration of stable NOHA monitoring", "setting": "[4]; medium samples stored at 37° C.", "value": "up to 7 days"}]}
{"smiles": "Clc1ccc(COC(Cn2ccnc2)c2ccc(Cl)cc2Cl)c(Cl)c1", "note": "(centres unmarked) [micronazole salt]", "values": [{"measurement": "increase in medium NOHA level", "setting": "[1]; ER−[AA], 10 μM inhibitor, over a 9 week period", "value": "≥ 0.79", "unit": "fold"}, {"measurement": "NOHA increase in the medium", "setting": "[1]; ER−[CA], 10 μM inhibitor, over a 9 week period", "value": "≥ 0.42", "unit": "fold"}]}
